Reference: patent US20080160019A1, “SEQUENTIAL COMBINATION THERAPY” (DYAX CORP., priority 2006, published 2008)

Key:
[1] = tested on: BxPC3 (human pancreatic cancer cell line) tumor; experiment: Pancreatic cancer xenograft model, tumor size by calipers (Example 3); type: in vivo, nude mice (nu/nu); settings: for tumor size as compared to control: as single agents; for calculated tumor growth rate, After Avastin / calculated tumor growth rate, Before Avastin (Day 21) / calculated tumor growth rate, Before Avastin (Day 10): DX-2240 or control IgG 20 mg/kg IP Q2d from day 1; for calculated tumor growth rate, Before Avastin (Day 21): before bevacizumab (twenty day pretreatment groups); for calculated tumor growth rate, Before Avastin (Day 10): before bevacizumab start at day 10; for calculated tumor growth rate, After Avastin: unit not given here; for calculated tumor growth rate, Before Avastin (Day 10): unit not given here; for calculated tumor growth rate, Before Avastin (Day 21): unit not given here
Experimental: The antitumor activity of combinations of DX-2240 and bevacizumab (anti-VEGF antibody) or sorafenib (multi-kinase inhibitor) were tested in a human tumor xenograft model. BxPC3 (human pancreatic cancer cell line) tumor fragments harvested from host nude mice (nu/nu) bearing subcutaneous BxPC-3 tumors were implanted subcutaneously into female nude mice (study animals) and allowed to form tumors. Mice were pair matched by tumor size and randomized into the various treatment groups when the tumors reached approximately 100 mm^3 (about 18 days following tumor implantation). The animals were assorted into the treatment groups shown in Table 1 (“Start” refers to the day on which treatment was begun). DX-2240 was administered by intraperitoneal (IP) injection at 20 mg/kg; bevacizumab was administered by IP injection at 10 mg/kg, sorafenib was administered orally at 60 mg/kg (for a total of 9 doses), and the control IgG (palivizumab, an antibody of the same isotype as DX-2240) was administered by IP injection at 20 mg/kg at the indicated dosing start dates and dosing regimens. An additional positive control group (group 13) was included: these animals were dosed with gemcitabine at 40 mg/kg Q3d for a total of four doses.
Tumor size was evaluated every three to four days using calipers.

[2] = tested on: DU 145 human prostate tumor model; experiment: DU 145 prostate tumor model, mean tumor volume (Example 6); type: in vivo, nude mice (nu/nu); settings: 20 mg/kg IP Q2D x17 from day 1
Experimental: Male nude mice (nu/nu) were injected subcutaneously with DU 145 cells harvested from tissue culture (˜1×10^7 cells/mouse). When tumors grew to approximately 95 mm^3 in size (about 7 days following injection), animals were pair-matched by tumor size into treatment and control groups.
Treatment was initiated after the animals were paired-matched (day 1). Animals in control and treatment groups were dosed by weight (10 ml/kg). DX-2240 and the control IgG (palivizumab) were administered by IP injection either once every other day for seventeen treatments beginning day 1 or once every four days for nine treatments beginning day 1. Sorafenib was dosed per os via gavage once daily for nine treatments beginning day 15. To serve as a control, the control IgG was administered every other day for seventeen treatments beginning day 1. Individual and group mean tumor volumes were recorded twice weekly from day 1 until day 57.

[3] = tested on: BxPC-3 human pancreas cancer model; experiment: BxPC-3 pancreas cancer model, dosing schedules, mean tumor volume (Example 5); type: in vivo, nude mice (nu/nu); settings: 20 mg/kg IP Q2D x10 from day 1, implanted tumor fragments
Experimental: Female nude mice (nu/nu) were divided into 14 groups. Animals in groups 1-12 were implanted subcutaneously by trocar with BxPC3 tumor fragments harvested from growing tumors in nude mice hosts. Mice in groups 13-14 were injected subcutaneously with approximately 1×10^7 BxPC-3 cells from tissue culture. When injected tumors grew to approximately 104 mm^3 in size (about 19 days following implantation) and implanted tumors grew to approximately 110 mm^3 in size (about 22 days following implantation) animals were pair-matched by tumor size into treatment and control groups. Animals from groups 1 and 2 were used to evaluate tumor vasculature. Animals from groups 13 and 14 were used to compare effects of DX-2240 on tumors formed from cell injection.
Treatment was initiated after the animals were pair-matched (day 1). Animals in all groups were dosed by weight (10 ml/kg). The control IgG and DX-2240 were administered by IP injection at 20 mg/kg, and bevacizumab and the rat α-mouse VEGF IgG antibody were administered by IP injection at 10 mg/kg once every three days. Dosing was initiated on day −3, 1, 5, 6, 10 or 20.
Individual and group mean tumor volumes were recorded twice weekly from day 1 until day 39.

tumor vasculature = experiment: Lectin staining of tumors (tumor vasculature, Example 5); type: in vivo, nude mice (nu/nu); settings: for lectin staining, High intensity (3+) / lectin staining, Low intensity (1+) / lectin staining, Medium intensity (2+): 20 mg/kg IP Q2D from day 1, BxPC3 tumors; for lectin staining, High intensity (3+): unit not given here; for lectin staining, Low intensity (1+): unit not given here; for lectin staining, Medium intensity (2+): unit not given here
Experimental: To determine changes in tumor vasculature, three animals from each of groups 1 and 2 were randomly selected for destructive sample collection, including tumor and serum on days 5, 10, 15, and 20. Animals were injected IV with 150 μL of a biotinylated-lectin solution (no injections on day 5 and 15). Five minutes later, animals were perfused by intracardiac injection with a 1% paraformaldehyde solution in PBS for 3 minutes. Tumors were then collected, placed in the perfusion solution, and sent immediately for analysis. Blood was collected by cardiac puncture and serum extracted, flash frozen in liquid nitrogen, and stored at −80° C.

Tie1 = Tie1 (Homo sapiens, UniProt P35590); settings: cited from earlier work
Sequence of Tie1 (P35590 22-1138): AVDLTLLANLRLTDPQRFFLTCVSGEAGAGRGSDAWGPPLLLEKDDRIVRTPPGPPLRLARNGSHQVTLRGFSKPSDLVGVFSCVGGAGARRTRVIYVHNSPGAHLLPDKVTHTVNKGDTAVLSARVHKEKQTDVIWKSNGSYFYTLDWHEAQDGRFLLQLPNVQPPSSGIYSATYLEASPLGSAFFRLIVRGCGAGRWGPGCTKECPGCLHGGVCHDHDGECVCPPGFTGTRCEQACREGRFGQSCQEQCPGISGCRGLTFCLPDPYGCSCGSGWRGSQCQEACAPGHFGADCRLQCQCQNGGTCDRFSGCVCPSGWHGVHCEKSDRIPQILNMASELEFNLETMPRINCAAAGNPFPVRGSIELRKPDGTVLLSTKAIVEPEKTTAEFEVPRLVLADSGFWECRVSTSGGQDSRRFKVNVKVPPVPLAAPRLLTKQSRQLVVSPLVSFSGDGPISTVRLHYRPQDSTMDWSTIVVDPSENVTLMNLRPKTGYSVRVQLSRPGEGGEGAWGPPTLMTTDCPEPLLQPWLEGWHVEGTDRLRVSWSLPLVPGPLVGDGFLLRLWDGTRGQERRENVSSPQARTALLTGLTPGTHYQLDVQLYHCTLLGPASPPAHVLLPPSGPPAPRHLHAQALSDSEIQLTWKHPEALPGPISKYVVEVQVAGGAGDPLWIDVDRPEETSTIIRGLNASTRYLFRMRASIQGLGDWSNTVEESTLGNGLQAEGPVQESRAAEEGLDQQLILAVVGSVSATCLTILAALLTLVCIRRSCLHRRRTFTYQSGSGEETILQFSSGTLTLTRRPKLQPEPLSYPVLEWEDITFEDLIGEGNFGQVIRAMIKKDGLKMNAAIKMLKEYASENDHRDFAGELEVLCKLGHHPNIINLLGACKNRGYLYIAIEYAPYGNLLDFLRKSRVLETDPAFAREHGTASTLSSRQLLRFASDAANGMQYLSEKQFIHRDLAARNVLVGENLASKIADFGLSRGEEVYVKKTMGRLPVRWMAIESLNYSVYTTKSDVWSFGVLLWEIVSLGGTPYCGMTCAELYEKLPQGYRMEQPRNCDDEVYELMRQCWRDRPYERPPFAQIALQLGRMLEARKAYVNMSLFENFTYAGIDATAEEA

[4] = after bevacizumab 10 mg/kg IP Q3d (twenty day pretreatment groups)
[5] = after bevacizumab 10 mg/kg IP Q3d started at day 10
[6] = DX-2240 or control IgG from day 1, bevacizumab (Avastin) after twenty day pretreatment
[7] = DX-2240 or control IgG from day 1, bevacizumab (Avastin) from day 10
[8] = day 1, 20 mg/kg IP Q2d from day 1
[9] = day 3, 20 mg/kg IP Q2d from day 1
[10] = day 7, 20 mg/kg IP Q2d from day 1
[11] = day 10, 20 mg/kg IP Q2d from day 1
[12] = day 14, 20 mg/kg IP Q2d from day 1
[13] = day 21, 20 mg/kg IP Q2d from day 1
[14] = day 24, 20 mg/kg IP Q2d from day 1
[15] = day 28, 20 mg/kg IP Q2d from day 1
[16] = day 31, 20 mg/kg IP Q2d from day 1

Nc1ccn([C@@H]2O[C@H](CO)[C@@H](O)C2(F)F)c(=O)n1 [gemcitabine]
Tumor volume ([1]; day 1, 40 mg/kg Q3d, four doses (positive control group 13)): 106.5 mm^3
Tumor volume ([1]; day 3, 40 mg/kg Q3d, four doses (positive control group 13)): 144.1 mm^3
Tumor volume ([1]; day 7, 40 mg/kg Q3d, four doses (positive control group 13)): 214.9 mm^3
Tumor volume ([1]; day 10, 40 mg/kg Q3d, four doses (positive control group 13)): 280.8 mm^3
Tumor volume ([1]; day 14, 40 mg/kg Q3d, four doses (positive control group 13)): 347.7 mm^3
Tumor volume ([1]; day 21, 40 mg/kg Q3d, four doses (positive control group 13)): 686.1 mm^3
Tumor volume ([1]; day 24, 40 mg/kg Q3d, four doses (positive control group 13)): 848.1 mm^3
Tumor volume ([1]; day 28, 40 mg/kg Q3d, four doses (positive control group 13)): 1084.8 mm^3
Tumor volume ([1]; day 31, 40 mg/kg Q3d, four doses (positive control group 13)): 1325.2 mm^3

CNC(=O)c1cc(Oc2ccc(NC(=O)Nc3ccc(Cl)c(C(F)(F)F)c3)cc2)ccn1 [sorafenib]
tumor size as compared to control [1]: reduced tumor size

Control IgG: palivizumab, an antibody of the same isotype as DX-2240 [reference compound]
mean tumor volume ([2]; day 1): 94.9 mm^3
mean tumor volume ([2]; day 5): 125.7 mm^3
mean tumor volume ([2]; day 9): 195.1 mm^3
mean tumor volume ([2]; day 13): 293.5 mm^3
mean tumor volume ([2]; day 15): 320.9 mm^3
mean tumor volume ([2]; day 19): 400.7 mm^3
mean tumor volume ([2]; day 23): 417.8 mm^3
mean tumor volume ([2]; day 26): 487.6 mm^3
mean tumor volume ([2]; day 29): 450.5 mm^3
mean tumor volume ([2]; day 33): 501.1 mm^3
mean tumor volume ([2]; day 36): 529.3 mm^3
mean tumor volume ([3]; day 1): 107.6 mm^3
mean tumor volume ([3]; day 4): 180.1 mm^3
mean tumor volume ([3]; day 8): 237.7 mm^3
mean tumor volume ([3]; day 11): 249.9 mm^3
mean tumor volume ([3]; day 15): 355.9 mm^3
mean tumor volume ([3]; day 18): 300.0 mm^3
calculated tumor growth rate, After Avastin [1, 4]: 23.8 ± 8.6
calculated tumor growth rate, After Avastin [1, 5]: 33.3 ± 6.6
calculated tumor growth rate, Before Avastin (Day 21) [1]: 28.3 ± 5.2
calculated tumor growth rate, Before Avastin (Day 10) [1]: 41.1 ± 9.0
# of stable tumor growths or tumor regressions [1, 6]: 1/8
# of stable tumor growths or tumor regressions [1, 7]: 0/8
Tumor volume [1, 8]: 106.9 mm^3
Tumor volume [1, 9]: 164.7 mm^3
Tumor volume [1, 10]: 293.2 mm^3
Tumor volume [1, 11]: 366.4 mm^3
Tumor volume [1, 12]: 521.8 mm^3
Tumor volume [1, 13]: 907.5 mm^3
Tumor volume [1, 14]: 1062.0 mm^3
Tumor volume [1, 15]: 1354.0 mm^3
Tumor volume [1, 16]: 1669.1 mm^3
lectin staining, High intensity (3+) (tumor vasculature; Day 10): 19242
lectin staining, Low intensity (1+) (tumor vasculature; Day 10): 1214685
lectin staining, Medium intensity (2+) (tumor vasculature; Day 10): 3148400
lectin staining, High intensity (3+) (tumor vasculature; Day 20): 7824
lectin staining, Low intensity (1+) (tumor vasculature; Day 20): 222879
lectin staining, Medium intensity (2+) (tumor vasculature; Day 20): 272402

DX-2240: Germlined F allotyped E3 antibody, Tie1 ectodomain-binding (SEQ ID NO:10-13)
mean tumor volume ([2]; day 1): 94.6 mm^3
mean tumor volume ([2]; day 5): 162.6 mm^3
mean tumor volume ([2]; day 9): 269.3 mm^3
mean tumor volume ([2]; day 13): 417.3 mm^3
mean tumor volume ([2]; day 15): 460.0 mm^3
mean tumor volume ([2]; day 19): 553.9 mm^3
mean tumor volume ([2]; day 23): 644.4 mm^3
mean tumor volume ([2]; day 26): 707.1 mm^3
mean tumor volume ([2]; day 29): 737.8 mm^3
mean tumor volume ([2]; day 33): 866.7 mm^3
mean tumor volume ([2]; day 36): 1008.3 mm^3
mean tumor volume ([3]; day 1): 107.7 mm^3
mean tumor volume ([3]; day 4): 157.7 mm^3
mean tumor volume ([3]; day 8): 194.2 mm^3
mean tumor volume ([3]; day 11): 199.0 mm^3
mean tumor volume ([3]; day 15): 308.7 mm^3
mean tumor volume ([3]; day 18): 289.1 mm^3
calculated tumor growth rate, After Avastin [1, 4]: 18.6 ± 8.0
calculated tumor growth rate, After Avastin [1, 5]: 12.2 ± 3.3
calculated tumor growth rate, Before Avastin (Day 21) [1]: 23.1 ± 6.6
calculated tumor growth rate, Before Avastin (Day 10) [1]: 23.9 ± 4.9
# of stable tumor growths or tumor regressions [1, 6]: 2/8
# of stable tumor growths or tumor regressions [1, 7]: 1/6
tumor size as compared to control [1]: reduced tumor size
Tumor volume [1, 8]: 105.6 mm^3
Tumor volume [1, 9]: 139.9 mm^3
Tumor volume [1, 10]: 223.1 mm^3
Tumor volume [1, 11]: 331.6 mm^3
Tumor volume [1, 12]: 460.5 mm^3
Tumor volume [1, 13]: 724.4 mm^3
Tumor volume [1, 14]: 954.1 mm^3
Tumor volume [1, 15]: 1171.1 mm^3
Tumor volume [1, 16]: 1351.4 mm^3
lectin staining of tumors as compared to control animals (tumor vasculature; DX-2240 20 mg/kg IP Q2D): less lectin staining
functional tumor vasculature (tumor vasculature; DX-2240-treated animals): less functional tumor vasculature
lectin staining, High intensity (3+) (tumor vasculature; Day 10): 92134
lectin staining, Low intensity (1+) (tumor vasculature; Day 10): 909706
lectin staining, Medium intensity (2+) (tumor vasculature; Day 10): 3468512
lectin staining, High intensity (3+) (tumor vasculature; Day 20): 5922
lectin staining, Low intensity (1+) (tumor vasculature; Day 20): 122022
lectin staining, Medium intensity (2+) (tumor vasculature; Day 20): 205406
Tie1 tyrosine phosphorylation (Tie1): induce
Tie complex formation (Tie1): induce
down modulation of Tie1 from the cell surface (Tie1): induce
Tie1/Tie2 heterodimers on the surface of cells expressing Tie1 and Tie2 (Tie1; e.g., endothelial cells): down-modulation
